Experimental findings from patent publication US5409956A, “Indan derivative and thromboxane antagonist containing the same” (Zeria Pharmaceutical Co., Ltd., priority 1991, dated 1995) are described below.

In test [1] the test system is Human platelet aggregation. Put plainly: Human platelet aggregation inhibitory action (in vitro), U46619-induced. It counts as cell-based. The following applies: human PRP, approximately 4×10^5 cells/ml, 1 μM U46619, 37° C., Born's method, read-out: IC50 (concentration required for inhibiting the platelet aggregation induced by 1 μM of U46619 by 50%). On the procedure:
Human platelet aggregation inhibitory action (in vitro):
Blood samples were collected from healthy humans. 9 parts by volume of the collected blood was mixed with 1 part by volume of an aqueous 3.8%(W/v) trisodium citrate, and the mixture was subjected to centrifugal separation for collecting the supernatant-to prepare a platelet rich plasma (PRP). A further centrifugation was-performed to separate a platelet poor plasma (PPP). PRP was diluted with PPP to adjust the number of platelets to approximately 4×10^5 cells/ml. Subsequently, 200 micro liters of PRP were added with the […] and 25 micro liters of an equimolar aqueous sodium hydrogencarbonate solution, and stirred for 2 minutes at 37° C. Thereafter, U46619 was added thereto for inducing platelet aggregation. The platelet aggregation was measured in accordance with a Born's method ("Nature", vol 194, page 927 (1962)), and inhibition against the platelet aggregation was examined. The platelet aggregation inhibitory action of the test compounds was expressed as the IC50 value (concentration required for inhibiting the platelet aggregation induced by 1 μM of U46619 by 50%).

For test [2], the system named is U46619 induced contraction in rat aorta. Put plainly: Inhibitory effect on U46619 induced contraction in rat aorta. The settings on record: relaxation of contraction by 10^-7 M U46619, rat thoracic aorta, 37° C., logit method. Type of test: cell-based, SD male rat. On the procedure: Inhibitory effect on U46619 induced contraction in rat aorta:
The sample was kept at 37° C., bubbled with 95% oxygen gas containing 5% CO2, and suspended in a 10 ml organ bath filled with a Krebs-Henseleit solution at 2 g resting tension. 10^-7 M of U46619 which is a stable active substance of TXA2 was added portionwise. After the contraction responses were stabilized, the test compound was added to the organ bath, and its antagonism was evaluated. A concentration-relaxation curve was obtained, to which was applied a logit method to obtain pIC50 values.

For `O=C(O)CCC(=O)c1ccc2c(c1)CC(CNS(=O)(=O)c1ccc(Cl)cc1)C2` (stereo not shown) [Example 40], in test [1], the IC50 is 1120 nM. Regarding `O=C(O)Cc1ccc2c(c1)CC(CNS(=O)(=O)c1ccccc1)C2` (stereo not shown) [Example 1, [2-(phenylsulfonylaminomethyl)indan-5-yl]acetic acid], the values for the IC50 in test [2] and in test [1] were 12.9 nM and 720 nM, respectively. For `O=C(O)COc1ccc2c(c1)CC(CNS(=O)(=O)c1ccc(Cl)cc1)C2` (stereo not shown) [Example 30, 2-[(4-chlorophenyl)sulfonylaminomethyl)indan-5-hydroxyacetic acid], the IC50 in test [1] was 310 nM. With `O=C(O)COc1ccc(CCNS(=O)(=O)c2ccccc2)cc1` [Control compound, 4-(2-phenylsulfonylaminoethyl)phenoxy acetic acid, reference compound], the IC50 was 427 nM in test [2] and 2530 nM in test [1]. The matching figures for `O=C(O)Cc1ccc2c(c1)CC(CCNS(=O)(=O)c1ccccc1)C2` (stereo not shown) [Example 25, [2-(2-phenylsulfonylaminoethyl)indan-5-yl]acetic acid]: 316 nM and 2450 nM. The matching figures for `O=C(O)Cc1ccc2c(c1)CC(CNS(=O)(=O)c1ccc(Cl)cc1)C2` (stereo not shown) [Example 24, [2-[(4-chlorophenyl)sulfonylaminomethyl)indan-5-yl]acetic acid]: 3.02 nM and 770 nM. For `O=C(O)c1ccc2c(c1)CC(CNS(=O)(=O)c1ccc(Cl)cc1)C2` (stereo not shown) [Example 33, [2-[(4-chlorophenyl)sulfonylaminomethyl]-indan-5-yl]carboxylic acid], the IC50 in test [1] was 850 nM. Still for that read-out and setting: in the case of `O=C(O)c1ccc2c(c1)CC(CCNS(=O)(=O)c1ccc(Cl)cc1)C2` (stereo not shown) [Example 34, [2-[2-(4-chlorophenyl)sulfonylaminoethyl)indan-5-yl]-carboxylic acid] it was 600 nM. In test [2], `O=C(O)COc1ccc2c(c1)CC(CNS(=O)(=O)c1ccccc1)C2` (stereo not shown) [Example 29, 2-(phenylsulfonylaminomethyl)indan-5-hydroxyacetic acid] gave an IC50 of 31.6 nM.
